Assay results taken from ChEMBL document CHEMBL5303573, “Mapping human microbiome drug metabolism by gut bacteria and their genes” (Nature, 2019).

Columns and labels:
Type in all cases: ADME
Settings in all cases: 2 µM
[1] = (§1) The drug is tested on the gut metagenome community of MV22 with ENA study accession number: PRJEB31790 and ENA sample accession number: SAMEA5537503 for biotransformation. The drug concentrations were measured over 9 timepoints collected between 0 and 24 hours of incubation by liquid-chromatography-coupled mass spectrometry (LC–MS); parameters: dose 2 uM, timepoint 0, 1, 2, 4, 6, 8, 12, 18, 24 hours
[2] = as §1, with “MV03” for “MV22”, “SAMEA5537484” for “SAMEA5537503”; parameters: dose 2 uM, timepoint 0, 1, 2, 4, 6, 8, 12, 18, 24 hours
[3] = as §1, with “MV24” for “MV22”, “SAMEA5537505” for “SAMEA5537503”; parameters: dose 2 uM, timepoint 0, 1, 2, 4, 6, 8, 12, 18, 24 hours
[4] = as §1, with “MV12” for “MV22”, “SAMEA5537493” for “SAMEA5537503”; parameters: dose 2 uM, timepoint 0, 1, 2, 4, 6, 8, 12, 18, 24 hours
[5] = as §1, with “MV27” for “MV22”, “SAMEA5537508” for “SAMEA5537503”; parameters: dose 2 uM, timepoint 0, 1, 2, 4, 6, 8, 12, 18, 24 hours
[6] = as §1, with “MV26” for “MV22”, “SAMEA5537507” for “SAMEA5537503”; parameters: dose 2 uM, timepoint 0, 1, 2, 4, 6, 8, 12, 18, 24 hours
[7] = molecular target: T1, SGNH hydrolase-type esterase domain-containing protein (Phocaeicola dorei, UniProt B6VTE7); test: (§2) The drug is tested on Bacteroides dorei strain: DSM17855 for biotransformation. The drug concentrations were measured before and after a 12-h incubation by liquid-chromatography-coupled mass spectrometry (LC–MS); parameters: dose 2 uM
T1 sequence (B6VTE7 whole entry): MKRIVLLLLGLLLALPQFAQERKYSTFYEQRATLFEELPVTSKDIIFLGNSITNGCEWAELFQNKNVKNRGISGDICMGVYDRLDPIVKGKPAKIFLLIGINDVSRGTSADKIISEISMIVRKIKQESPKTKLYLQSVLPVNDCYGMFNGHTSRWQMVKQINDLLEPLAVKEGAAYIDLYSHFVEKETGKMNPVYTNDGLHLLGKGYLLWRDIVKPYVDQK

[8] = molecular target: T2, SGNH hydrolase-type esterase domain-containing protein (Phocaeicola dorei, UniProt B6W293); test: as §2; parameters: dose 2 uM
T2 sequence (B6W293 whole entry): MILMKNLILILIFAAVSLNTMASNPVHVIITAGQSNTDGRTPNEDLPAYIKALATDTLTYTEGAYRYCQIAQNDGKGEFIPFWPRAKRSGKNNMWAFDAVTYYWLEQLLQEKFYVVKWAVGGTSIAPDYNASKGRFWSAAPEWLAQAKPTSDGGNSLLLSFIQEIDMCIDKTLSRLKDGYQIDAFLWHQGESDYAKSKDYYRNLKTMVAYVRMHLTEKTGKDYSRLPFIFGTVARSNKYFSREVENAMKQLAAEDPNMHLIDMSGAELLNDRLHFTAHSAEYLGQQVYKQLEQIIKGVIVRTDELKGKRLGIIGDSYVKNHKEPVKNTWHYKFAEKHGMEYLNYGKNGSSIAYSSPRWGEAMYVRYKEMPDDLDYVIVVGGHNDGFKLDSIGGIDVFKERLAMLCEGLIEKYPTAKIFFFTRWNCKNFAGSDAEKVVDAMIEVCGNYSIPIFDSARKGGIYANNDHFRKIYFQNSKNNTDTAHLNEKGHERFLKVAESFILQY

[9] = molecular target: T3, SGNH hydrolase-type esterase domain-containing protein (Phocaeicola dorei, UniProt B6W1J1); test: as §2; parameters: dose 2 uM
T3 sequence (B6W1J1 whole entry): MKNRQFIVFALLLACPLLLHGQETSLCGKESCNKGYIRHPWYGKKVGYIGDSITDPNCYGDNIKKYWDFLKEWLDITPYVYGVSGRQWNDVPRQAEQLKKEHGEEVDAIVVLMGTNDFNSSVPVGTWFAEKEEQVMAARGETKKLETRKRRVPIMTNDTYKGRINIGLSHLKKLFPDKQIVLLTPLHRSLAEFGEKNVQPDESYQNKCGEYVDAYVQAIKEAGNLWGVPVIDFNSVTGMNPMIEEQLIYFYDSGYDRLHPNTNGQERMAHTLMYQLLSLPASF

[10] = as §1, with “MV23” for “MV22”, “SAMEA5537504” for “SAMEA5537503”; parameters: dose 2 uM, timepoint 0, 1, 2, 4, 6, 8, 12, 18, 24 hours
[11] = as §1, with “MV19” for “MV22”, “SAMEA5537500” for “SAMEA5537503”; parameters: dose 2 uM, timepoint 0, 1, 2, 4, 6, 8, 12, 18, 24 hours
[12] = as §1, with “MV02” for “MV22”, “SAMEA5537483” for “SAMEA5537503”; parameters: dose 2 uM, timepoint 0, 1, 2, 4, 6, 8, 12, 18, 24 hours
[13] = as §1, with “MV04” for “MV22”, “SAMEA5537485” for “SAMEA5537503”; parameters: dose 2 uM, timepoint 0, 1, 2, 4, 6, 8, 12, 18, 24 hours
[14] = as §1, with “MV14” for “MV22”, “SAMEA5537495” for “SAMEA5537503”; parameters: dose 2 uM, timepoint 0, 1, 2, 4, 6, 8, 12, 18, 24 hours
[15] = as §1, with “MV09” for “MV22”, “SAMEA5537490” for “SAMEA5537503”; parameters: dose 2 uM, timepoint 0, 1, 2, 4, 6, 8, 12, 18, 24 hours
[16] = as §1, with “MV28” for “MV22”, “SAMEA5537509” for “SAMEA5537503”; parameters: dose 2 uM, timepoint 0, 1, 2, 4, 6, 8, 12, 18, 24 hours
[17] = as §1, with “MV10” for “MV22”, “SAMEA5537491” for “SAMEA5537503”; parameters: dose 2 uM, timepoint 0, 1, 2, 4, 6, 8, 12, 18, 24 hours
[18] = as §1, with “MV15” for “MV22”, “SAMEA5537496” for “SAMEA5537503”; parameters: dose 2 uM, timepoint 0, 1, 2, 4, 6, 8, 12, 18, 24 hours
[19] = as §1, with “MV11” for “MV22”, “SAMEA5537492” for “SAMEA5537503”; parameters: dose 2 uM, timepoint 0, 1, 2, 4, 6, 8, 12, 18, 24 hours
[20] = as §1, with “MV16” for “MV22”, “SAMEA5537497” for “SAMEA5537503”; parameters: dose 2 uM, timepoint 0, 1, 2, 4, 6, 8, 12, 18, 24 hours

SMILES	Bacterial Biotransformation [1]	Bacterial Biotransformation [2]	Bacterial Biotransformation [3]	Bacterial Biotransformation [4]	Bacterial Biotransformation [5]	Bacterial Biotransformation [6]	Bacterial Biotransformation [7]	Bacterial Biotransformation [8]	Bacterial Biotransformation [9]	Bacterial Biotransformation [10]	Bacterial Biotransformation [11]	Bacterial Biotransformation [12]	Bacterial Biotransformation [13]	Bacterial Biotransformation [14]	Bacterial Biotransformation [15]	Bacterial Biotransformation [16]	Bacterial Biotransformation [17]	Bacterial Biotransformation [18]	Bacterial Biotransformation [19]	Bacterial Biotransformation [20]
C#C[C@]1(OC(C)=O)CC[C@H]2[C@@H]3CCC4=CC(=O)CC[C@@H]4[C@H]3CC[C@@]21C [NORETHINDRONE ACETATE]	Compound metabolized	Compound metabolized	Compound metabolized	Compound metabolized	Compound metabolized	Compound metabolized	Compound NOT metabolized	Compound NOT metabolized	Compound NOT metabolized	Compound metabolized	Compound NOT metabolized	Compound metabolized	Compound metabolized	Compound metabolized	Compound metabolized	Compound metabolized	Compound metabolized	Compound metabolized	Compound metabolized	Compound metabolized
C#C[C@]1(O)CC[C@H]2[C@@H]3CCC4=CC(=O)CC[C@@H]4[C@H]3CC[C@@]21CC [LEVONORGESTREL]							Compound NOT metabolized	Compound NOT metabolized	Compound NOT metabolized											
N#Cc1ccc2c(c1)N(CCCN1CCC(O)CC1)c1ccccc1S2 [PERICIAZINE]							Compound NOT metabolized	Compound NOT metabolized	Compound NOT metabolized											

The remaining lines, values ahead:

Bacterial Biotransformation [1]	Bacterial Biotransformation [2]	Bacterial Biotransformation [3]	Bacterial Biotransformation [4]	Bacterial Biotransformation [5]	Bacterial Biotransformation [6]	Bacterial Biotransformation [7]	Bacterial Biotransformation [8]	Bacterial Biotransformation [9]	Bacterial Biotransformation [10]	Bacterial Biotransformation [11]	Bacterial Biotransformation [12]	Bacterial Biotransformation [13]	Bacterial Biotransformation [14]	Bacterial Biotransformation [15]	Bacterial Biotransformation [16]	Bacterial Biotransformation [17]	Bacterial Biotransformation [18]	Bacterial Biotransformation [19]	Bacterial Biotransformation [20]	SMILES
Compound NOT metabolized	Compound NOT metabolized	Compound NOT metabolized	Compound NOT metabolized	Compound NOT metabolized	Compound NOT metabolized	Compound NOT metabolized	Compound NOT metabolized	Compound NOT metabolized	Compound NOT metabolized	Compound NOT metabolized	Compound NOT metabolized	Compound NOT metabolized	Compound NOT metabolized	Compound NOT metabolized	Compound NOT metabolized	Compound NOT metabolized	Compound NOT metabolized	Compound NOT metabolized	Compound NOT metabolized	COc1ccc([C@@H]2Sc3ccccc3N(CCN(C)C)C(=O)[C@@H]2OC(C)=O)cc1 [DILTIAZEM]
Compound metabolized	Compound metabolized	Compound metabolized	Compound metabolized	Compound metabolized	Compound metabolized	Compound metabolized	Compound metabolized		Compound metabolized	Compound NOT metabolized	Compound metabolized	Compound metabolized	Compound metabolized	Compound metabolized	Compound metabolized	Compound metabolized	Compound metabolized	Compound metabolized	Compound metabolized	CC(=O)OCC(CCn1cnc2cnc(N)nc21)COC(C)=O [FAMCICLOVIR]
